Measured values as given in patent US5747006A, “Skin whitener composition containing acerola cherry fermentate” (Amway Corporation, priority 1997, dated 1998).

Test system: tyrosinase from mushroom
Test: Inhibition of tyrosinase, absorbancy at 475 nm with tyrosine substrate
Assay type: biochemical
Conditions: for percent inhibition of the tyrosinase: pH 6.8 sodium acetate buffer, Example 1
Protocol: A buffer solution A containing 50 mM sodium acetate was prepared to yield a 6.8 pH.
A test tube was charged with 2.7 ml of buffer solution A and 0.4 ml. water to define a blank. Similarly, another test tube was charged with 2.7 ml. of the tyrosine solution, 0.3 ml of water, and 0.1 ml of the tyrosinase solution to define a reference. The absorbency of the reference was measured at 475 nm over a period of time with a spectrophotometer and the absorbancy was set to zero.
A test tube was charged with 2.7 ml of the tyrosine solution, 0.1 ml. of the tyrosinase solution and 0.02% of mercaptosuccinic acid together with 0.5% acerola cherry fermentate.

O=c1cc(CO)occ1O [Comparative Example 2, kojic acid] was tested, and the “Percent Inhibition (0.5 hours)” value (0.5 hours, Table 1) was 91 and the “Percent Inhibition (24 hours)” value (24 hours, Table 1) was 92.
In the case of O=C(O)CC(S)C(=O)O (stereo not shown) [compound 1, mercaptosuccinic acid], the “percent inhibition of the tyrosinase” value (0.5 hours) is reported as 95% and the “percent inhibition of the tyrosinase” value (24 hours) is reported as 77%.
